This is an account of results in ChEMBL document CHEMBL1139584 (Bioorg Med Chem Lett, 2005).

For assay [1], the target named is T1, Somatostatin receptor type 2 (Homo sapiens, UniProt P30874). Briefly: Inhibitory constant against human sst2 receptor at a dose of 10 uM.
Assay [2] concerns the target T2, Somatostatin receptor type 5 (Homo sapiens, UniProt P35346). Briefly: Inhibitory constant against human sst5 receptor at a dose of 10 uM.
For assay [3], the target named is Somatostatin receptor type 4 (Homo sapiens, UniProt P31391). The assay can be described thus: Binding affinity against human sst4 receptor at a dose of 10 uM.
Assay [4] addresses T1, Somatostatin receptor type 2. Briefly: Inhibition of forskolin-induced cAMP accumulation in CHO-K1 cells expressing human sst2 receptor. The class given is functional, cell-based. For orientation: cAMP levels reflect the balance of adenylyl cyclase and phosphodiesterase activity.
The target in assay [5] is Somatostatin receptor type 3 (Homo sapiens, UniProt P32745). The assay can be described thus: Binding affinity against human sst3 receptor at 10 uM.
Assay [6] addresses Somatostatin receptor type 1 (Homo sapiens, UniProt P30872). The assay can be described thus: Binding affinity against human sst1 receptor at a dose of 10 uM.
In assay [7] the target is T2, Somatostatin receptor type 5. The assay can be described thus: Inhibition of forskolin-induced cAMP accumulation in CHO-K1 cells expressing human sst5 receptor. The class given is functional, cell-based.

T2 sequence (P35346 whole entry): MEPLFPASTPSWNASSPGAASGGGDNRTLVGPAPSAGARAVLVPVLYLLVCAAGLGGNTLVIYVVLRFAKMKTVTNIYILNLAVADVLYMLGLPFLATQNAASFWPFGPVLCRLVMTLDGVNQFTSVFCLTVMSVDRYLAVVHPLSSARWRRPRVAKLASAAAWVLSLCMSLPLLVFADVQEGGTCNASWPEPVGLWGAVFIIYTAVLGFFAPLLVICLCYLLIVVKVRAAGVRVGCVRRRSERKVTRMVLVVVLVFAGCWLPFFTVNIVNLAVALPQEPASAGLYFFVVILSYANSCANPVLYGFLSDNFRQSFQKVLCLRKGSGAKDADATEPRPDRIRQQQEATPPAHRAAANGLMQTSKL
Somatostatin receptor type 3, sequence (P32745 whole entry): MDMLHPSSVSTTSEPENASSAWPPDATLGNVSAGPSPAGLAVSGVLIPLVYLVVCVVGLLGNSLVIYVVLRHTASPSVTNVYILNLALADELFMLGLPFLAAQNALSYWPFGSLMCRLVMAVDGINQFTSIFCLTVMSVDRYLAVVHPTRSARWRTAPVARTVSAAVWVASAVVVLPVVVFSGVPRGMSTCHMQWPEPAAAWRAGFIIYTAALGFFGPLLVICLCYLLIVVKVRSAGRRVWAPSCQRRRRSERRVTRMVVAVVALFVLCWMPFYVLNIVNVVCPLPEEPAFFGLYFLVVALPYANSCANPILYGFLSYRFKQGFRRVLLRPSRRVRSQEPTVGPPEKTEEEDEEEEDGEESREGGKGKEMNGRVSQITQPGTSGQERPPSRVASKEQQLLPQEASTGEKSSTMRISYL
T1 sequence (P30874 whole entry): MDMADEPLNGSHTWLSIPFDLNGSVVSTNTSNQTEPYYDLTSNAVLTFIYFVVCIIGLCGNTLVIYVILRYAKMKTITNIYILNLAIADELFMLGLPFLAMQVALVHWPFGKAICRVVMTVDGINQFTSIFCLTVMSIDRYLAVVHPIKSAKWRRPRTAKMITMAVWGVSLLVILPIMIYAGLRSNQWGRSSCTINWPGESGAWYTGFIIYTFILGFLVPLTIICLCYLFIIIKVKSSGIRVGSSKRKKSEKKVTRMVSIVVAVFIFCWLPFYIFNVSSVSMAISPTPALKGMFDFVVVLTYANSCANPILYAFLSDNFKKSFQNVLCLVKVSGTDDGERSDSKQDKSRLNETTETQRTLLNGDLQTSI
Somatostatin receptor type 1, sequence (P30872 whole entry): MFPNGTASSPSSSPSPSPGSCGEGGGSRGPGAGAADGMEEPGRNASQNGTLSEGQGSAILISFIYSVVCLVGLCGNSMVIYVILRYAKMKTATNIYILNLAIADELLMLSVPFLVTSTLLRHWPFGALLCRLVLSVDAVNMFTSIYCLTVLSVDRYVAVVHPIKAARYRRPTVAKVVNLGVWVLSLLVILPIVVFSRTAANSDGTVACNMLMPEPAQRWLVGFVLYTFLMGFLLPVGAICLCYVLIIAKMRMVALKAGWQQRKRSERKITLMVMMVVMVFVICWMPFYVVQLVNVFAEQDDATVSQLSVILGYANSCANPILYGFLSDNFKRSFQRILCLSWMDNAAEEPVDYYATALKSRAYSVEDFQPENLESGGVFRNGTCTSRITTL
Somatostatin receptor type 4, sequence (P31391 whole entry): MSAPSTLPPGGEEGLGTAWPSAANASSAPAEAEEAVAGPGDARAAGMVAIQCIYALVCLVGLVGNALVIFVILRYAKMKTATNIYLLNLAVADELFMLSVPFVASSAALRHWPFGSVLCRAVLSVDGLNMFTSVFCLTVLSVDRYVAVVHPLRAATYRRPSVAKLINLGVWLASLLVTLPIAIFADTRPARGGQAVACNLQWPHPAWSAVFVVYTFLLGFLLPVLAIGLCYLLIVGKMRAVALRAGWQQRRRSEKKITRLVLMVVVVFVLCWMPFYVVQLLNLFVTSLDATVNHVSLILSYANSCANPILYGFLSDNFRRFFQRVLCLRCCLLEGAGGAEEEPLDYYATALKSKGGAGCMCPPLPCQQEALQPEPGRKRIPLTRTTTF

What is called Ki is the dissociation constant of the complex between target and ligand, obtained from inhibition or displacement. Consider `Cc1cccc2c(C(=O)C(C)(C)CSc3nnc(-c4ccc5ccccc5n4)n3CCCCN)c[nH]c12`, for which the Ki in assay [1] worked out at 23 nM; in assay [2], 9.3 nM.

On to `NCCCCn1c(SCCc2c[nH]c3ccccc23)nnc1-c1cccc2cc[nH]c12`, for which the figures for the Ki in assay [1] and in assay [2] were 220 nM and 64 nM, respectively.

`CN(C)CCCCn1c(SCCc2c[nH]c3ccccc23)nnc1-c1ccc2ccccc2c1`: the Ki in assay [1] was found to be 2800 nM; in assay [2] it was 1300 nM.

Consider `NCCCCn1c(SCCc2c[nH]c3ccccc23)nnc1-c1cccc2ccccc12`, for which the Ki in assay [1] is 150 nM; in assay [2], 410 nM.

On to `NCCCCCn1c(SCCc2c[nH]c3ccccc23)nnc1-c1ccc2ccccc2c1`, for which the Ki was determined as 610 nM in assay [1] and 70 nM in assay [2].

As usually defined, the EC50 is the midpoint of the concentration-response curve. Lower therefore signals an effect from little substance. For `NCCCCn1c(SCCc2c[nH]c3cc(F)ccc23)nnc1-c1ccc2ccccc2n1`, the Ki in assay [1] was 2.7 nM; in assay [3] it was 74 nM; in assay [5] it was 100 nM; in assay [2], 1.7 nM; in assay [6], 58 nM. Moreover, the EC50 was 14 nM in assay [4] and 44 nM in assay [7].

Take `NCCCCn1c(SCCc2c[nH]c3ccc(Cl)cc23)nnc1-c1ccc2ccccc2n1`: the Ki in assay [1] was 5.6 nM; in assay [2], 2.3 nM. Further, the values for the EC50 in assay [4] and in assay [7] were 6.3 nM and 52 nM, respectively.

For `Cc1cccc2c(C(=O)CCSc3nnc(-c4ccc5ccccc5n4)n3CCCCN)c[nH]c12`, the Ki in assay [1] was determined as 2 nM; in assay [3], 800 nM; in assay [5], 170 nM; in assay [2], 0.38 nM; in assay [6], 530 nM. For the same compound, the EC50 worked out at 4 nM in assay [4] and 2.3 nM in assay [7].

Regarding `NCCCCn1c(SCCc2c[nH]c3ccccc23)nnc1-c1cc2ccccc2s1`, the Ki in assay [1] was determined as 160 nM; in assay [2], 58 nM.

Consider `NCCCCn1c(SCCc2c[nH]c3ccccc23)nnc1-c1ccc2cc(F)ccc2n1`, for which the figures for the Ki in assay [1] and in assay [2] were 12 nM and 7.8 nM, respectively.

Take `NCCCCn1c(SCCc2c[nH]c3ccccc23)nnc1-c1cccc(Br)c1`: the values for the Ki in assay [1] and in assay [2] were 250 nM and 51 nM, respectively.

For `CCc1ccc(-c2nnc(SCCc3c[nH]c4ccccc34)n2CCCCN)cc1`, the Ki in assay [1] was 430 nM; in assay [2], 26 nM.

On to `NCCCCn1c(SCCc2c[nH]c3ccccc23)nnc1-c1ccc2ccccc2c1`, for which the Ki in assay [1] was 100 nM; in assay [2], 27 nM.

As to `NCCCCn1c(SCCc2c[nH]c3c(Cl)cccc23)nnc1-c1ccc2ccccc2n1`, the Ki in assay [1] came out at 4 nM; in assay [3] it was 130 nM; in assay [5] it was 97 nM; in assay [2], 8.4 nM; in assay [6], 180 nM.

As for `NCCCn1c(SCCc2c[nH]c3ccccc23)nnc1-c1ccc2ccccc2c1`, the figures for the Ki in assay [1] and in assay [2] were 640 nM and 66 nM, respectively.

For the compound `Cc1cccc2c(CCSc3nnc(-c4ccc5ccccc5n4)n3CCCCN)c[nH]c12`, the Ki in assay [1] amounted to 1.8 nM; in assay [3], 140 nM; in assay [5] it was 41 nM; in assay [2], 2.1 nM; in assay [6] it was 130 nM. Also, the EC50 in assay [4] was 22 nM; in assay [7] it was 34 nM.

Take `NCCCCn1c(SCCc2c[nH]c3ccccc23)nnc1-c1cnc2ccccc2n1`: the Ki turned out to be 32 nM in assay [1] and 56 nM in assay [2].
